In PubChem BioAssay (NCI):
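Assay format: 96-well plates, 48-hour exposure. The concentration for full growth arrest is given as TGI.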

Columns and labels:
Test in all cases: inhibition of tumour cell growth, NCI panel, 48 h
[1] = tested on: PC-3 prostate
[2] = tested on: SK-MEL-28 melanoma
[3] = tested on: NCI-H226 lung
[4] = tested on: U251 CNS
[5] = tested on: NCI-H23 lung
[6] = tested on: HCT-116 colon
[7] = tested on: LOX IMVI melanoma
[8] = tested on: K-562 leukemia
[9] = tested on: 786-0 renal
[10] = tested on: OVCAR-8 ovarian
[11] = tested on: SF-295 CNS
[12] = tested on: A549 NSCLC
[13] = tested on: OVCAR-5 ovarian
[14] = tested on: MDA-N
[15] = tested on: HCT-15 colon
[16] = tested on: NCI-H522 lung
[17] = tested on: SN12C renal
[18] = tested on: MDA-MB-435
[19] = tested on: BT-549 breast
[20] = tested on: MDA-MB-231 breast
[21] = tested on: SW-620 colon
[22] = tested on: DU-145 prostate
[23] = tested on: UACC-62 melanoma
[24] = tested on: HCC-2998 colon
[25] = tested on: SK-MEL-2 melanoma
[26] = tested on: SK-OV-3 ovarian
[27] = tested on: TK-10 renal
[28] = tested on: SF-268 CNS
[29] = tested on: COLO 205 colon
[30] = tested on: HT29 colon
[31] = tested on: MALME-3M melanoma
[32] = tested on: EKVX NSCLC
[33] = tested on: UO-31 renal
[34] = tested on: CAKI-1 renal
[35] = tested on: HOP-62 NSCLC
[36] = tested on: IGROV1 ovarian
[37] = tested on: SNB-19 CNS
[38] = tested on: RPMI-8226 leukemia
[39] = tested on: SR leukemia
[40] = tested on: CCRF-CEM leukemia
[41] = tested on: HOP-92 NSCLC
[42] = tested on: NCI/ADR-RES ovarian
[43] = tested on: SK-MEL-5 melanoma
[44] = tested on: KM12 colon
[45] = tested on: NCI-H460 lung
[46] = tested on: ACHN renal
[47] = tested on: HL-60(TB) leukemia
[48] = tested on: M14 melanoma
[49] = tested on: OVCAR-4 ovarian
[50] = tested on: RXF 393 renal
[51] = tested on: MCF7 breast
[52] = tested on: A498 renal
[53] = tested on: HS 578T breast
[54] = tested on: UACC-257 melanoma
[55] = tested on: T-47D breast
[56] = tested on: SNB-75 CNS
[57] = tested on: OVCAR-3 ovarian
[58] = tested on: MOLT-4 leukemia
[59] = tested on: SF-539 CNS

Measured: TGI

O=P(O)(O)c1ccccc1 (tested in a mixture with another compound)
not listed: [58] | [59]
> 100 µM: all other assays above

CC(=O)C(=[N+]=[N-])C(=O)OC(C)(C)C#N
8.12 µM: [56]
not listed: [16]
> 10 µM: all other assays above

N#CCCN(CCC#N)c1ccc(C(N=Nc2ccccc2)=Nc2ccccc2)cc1
not listed: [7] | [31] | [47]
> 100 µM: all other assays above

CC1=C2c3c(C)ccc4ccc(C)c(c34)C2(O)C(C)C1=O (configuration not stated)
76 µM: [42]
91.6 µM: [47]
72.2 µM: [29]
49.4 µM: [10]
57.4 µM: [19]
not listed: [5] | [11] | [31] | [40] | [50]
> 100 µM: all other assays above

Cc1cc(C)nc(NS(=O)(=O)c2ccc(Nc3c4ccccc4nc4c(C(=O)NCCCN(CCO)CCO)cccc34)cc2)n1
23.1 µM: [56]
65.5 µM: [53]
99.2 µM: [48]
28.2 µM: [16]
73.5 µM: [35]
38.6 µM: [47]
69.7 µM: [40]
27.6 µM: [19]
34.8 µM: [25] | [43]
44 µM: [45]
79.6 µM: [38]
31.2 µM: [2]
30.7 µM: [44]
83.7 µM: [14]
88.6 µM: [20]
46.1 µM: [7]
33.6 µM: [21] | [24] | [31]
34.3 µM: [29]
60.4 µM: [23]
40.6 µM: [18]
not listed: [3] | [6] | [9] | [50] | [59]
> 100 µM: all other assays above

N#Cc1c(-c2ccc([N+](=O)[O-])cc2)cc(-c2ccc(Nc3ccnc4cc(C(F)(F)F)ccc34)cc2)nc1N
34.2 µM: [30]
28.8 µM: [55]
51.7 µM: [50]
26.8 µM: [12]
> 75.9 µM: [29]
51.3 µM: [35]
> 93.3 µM: [32]
> 55.4 µM: [24]
10.7 µM: [51]
41.7 µM: [20]
21.9 µM: [4]
59.8 µM: [2]
> 47.9 µM: [44]
33.3 µM: [18]
15.6 µM: [9]
29.3 µM: [57]
19.1 µM: [8]
> 66.5 µM: [45]
> 71.6 µM: [26]
59.2 µM: [21]
34.7 µM: [37]
> 73.8 µM: [13]
> 100 µM: [16] | [23]
41.3 µM: [34]
29 µM: [36]
66.1 µM: [53]
> 60.2 µM: [10]
38.3 µM: [14]
> 69.8 µM: [27]
> 54.5 µM: [38]
> 85.2 µM: [54]
37.6 µM: [11]
> 63.3 µM: [7]
> 75.6 µM: [19]
46.6 µM: [17]
35.3 µM: [42]
36.4 µM: [48]
> 72 µM: [28]
> 62.3 µM: [5]
> 29.7 µM: [40]
36.5 µM: [33]
> 68.8 µM: [46]
23.6 µM: [15]
> 62.8 µM: [31]
27.5 µM: [6]
> 20 µM: [39]
> 71.3 µM: [52]
28.1 µM: [49]
14.5 µM: [58]
> 63.8 µM: [59]
> 70.1 µM: [3]
> 59.7 µM: [25]
56.9 µM: [1]
> 43.3 µM: [22]
42 µM: [41]
> 83.3 µM: [43]
49.8 µM: [56]

CN(C)c1ccc(/C=C(\C#N)C(N)=C(C#N)C#N)cc1
not listed: [25] | [38] | [56] | [58]
> 100 µM: all other assays above
